Source: publication PMC4077815, “Modulation of Phosphorylation of Tocopherol and Phosphatidylinositol by hTAP1/SEC14L2-Mediated Lipid Exchange” (PLoS ONE, 2014)

How the values were obtained:
[1] = target: recombinant phosphatidylinositol-3-kinase gamma PI3Kγ/p110γ (UniProt P48736)
[2] = target: T1, recombinant PI3Kγ/p110γ (phosphatidylinositol-3-kinase gamma) (Homo sapiens, UniProt P48736); test: [γ-32P]-ATP phosphatidylinositol kinase assay, TLC; format: biochemical; conditions: stimulator; no hTAP1; phosphatidylinositol 100 µM, ATP 20 µM, 4 mM MgCl2, pH 7.4, 37 °C
T1 construct: gene PIK3CG; no regulatory subunit mentioned

[3] = target: T2, recombinant hTAP1 (human tocopherol associated protein 1, hSEC14L2) (Homo sapiens, UniProt O76054); test: isoelectric point mobility shift competition with phosphatidylinositol; format: binding; design: gene SEC14L2; N-terminal His tag, expressed in and purified from Escherichia coli; conditions: read-out: 50% displacement of PI
[4] = target: T2, recombinant hTAP1 (human tocopherol associated protein 1, hSEC14L2); design: gene SEC14L2; conditions: competitor of phosphatidylinositol; native isoelectric focusing gel

T1 sequence (P48736 whole entry): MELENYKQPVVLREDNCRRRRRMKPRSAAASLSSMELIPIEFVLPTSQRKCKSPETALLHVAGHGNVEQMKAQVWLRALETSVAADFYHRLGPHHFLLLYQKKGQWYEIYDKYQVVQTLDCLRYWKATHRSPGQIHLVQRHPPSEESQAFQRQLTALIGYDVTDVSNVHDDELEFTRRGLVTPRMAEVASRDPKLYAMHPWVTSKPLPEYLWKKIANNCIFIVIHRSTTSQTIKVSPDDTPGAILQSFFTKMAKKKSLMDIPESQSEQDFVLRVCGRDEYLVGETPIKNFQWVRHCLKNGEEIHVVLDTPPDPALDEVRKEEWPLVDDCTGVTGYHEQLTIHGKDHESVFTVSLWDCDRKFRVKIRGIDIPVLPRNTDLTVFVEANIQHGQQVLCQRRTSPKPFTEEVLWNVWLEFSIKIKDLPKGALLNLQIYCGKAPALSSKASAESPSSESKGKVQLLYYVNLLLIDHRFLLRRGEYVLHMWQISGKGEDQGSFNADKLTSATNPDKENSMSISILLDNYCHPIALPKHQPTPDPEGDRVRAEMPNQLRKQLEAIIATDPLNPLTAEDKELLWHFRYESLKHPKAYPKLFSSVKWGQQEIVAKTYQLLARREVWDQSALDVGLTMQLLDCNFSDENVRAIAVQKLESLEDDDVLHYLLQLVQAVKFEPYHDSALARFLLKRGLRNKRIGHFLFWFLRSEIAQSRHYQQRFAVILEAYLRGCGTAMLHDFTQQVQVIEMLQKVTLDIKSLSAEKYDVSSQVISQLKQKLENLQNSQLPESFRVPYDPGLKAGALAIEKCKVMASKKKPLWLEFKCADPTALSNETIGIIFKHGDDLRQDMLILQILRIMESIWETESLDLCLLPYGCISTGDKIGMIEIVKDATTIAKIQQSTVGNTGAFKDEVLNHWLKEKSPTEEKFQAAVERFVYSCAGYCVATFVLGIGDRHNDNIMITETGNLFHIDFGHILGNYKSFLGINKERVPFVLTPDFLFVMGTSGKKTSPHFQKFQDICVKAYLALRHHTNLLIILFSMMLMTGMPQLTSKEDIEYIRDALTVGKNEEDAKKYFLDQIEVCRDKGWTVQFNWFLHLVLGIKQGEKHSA
T2 sequence (O76054 whole entry): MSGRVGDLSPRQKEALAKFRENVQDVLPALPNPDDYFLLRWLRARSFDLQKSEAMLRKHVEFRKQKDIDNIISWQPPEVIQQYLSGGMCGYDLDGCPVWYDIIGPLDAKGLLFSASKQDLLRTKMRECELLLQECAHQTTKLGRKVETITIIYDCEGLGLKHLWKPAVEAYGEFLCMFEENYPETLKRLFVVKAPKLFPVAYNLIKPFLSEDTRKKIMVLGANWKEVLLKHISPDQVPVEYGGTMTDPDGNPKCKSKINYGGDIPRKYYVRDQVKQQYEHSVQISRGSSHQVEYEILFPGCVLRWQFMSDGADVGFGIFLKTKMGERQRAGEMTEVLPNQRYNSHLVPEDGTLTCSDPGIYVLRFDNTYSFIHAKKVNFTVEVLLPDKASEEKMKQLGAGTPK
Sequence of recombinant human tocopherol associated protein 1 (O76054 whole entry): as above
Sequence of recombinant phosphatidylinositol-3-kinase gamma PI3Kγ/p110γ (P48736 whole entry): as the sequence (P48736 whole entry) above

“recombinant human tocopherol associated protein 1 (from UniProt O76054 1-403) (natural protein)” was tested, and the in vitro PI3Kγ activity (phosphorylation of phosphatidylinositol with [γ-32P]-ATP, TLC) in the presence of recombinant hTAP1, relative to the control without hTAP1 [1] was 38%.
With `Cc1c(C)c2c(c(C)c1O)CC[C@@](C)(CCC[C@H](C)CCC[C@H](C)CCCC(C)C)O2` [RRR-α-tocopherol] the “% of control activity at 50 μM” value [2] was “All four tocopherols stimulated PI3Kγ activity with similar efficiency (Figure 4A)” and the IC50 [3] was 50 µM.
For `Cc1c(C)c2c(c(C)c1OP(=O)(O)O)CC[C@@](C)(CCC[C@H](C)CCC[C@H](C)CCCC(C)C)O2` [α-tocopheryl phosphate], the “% of control activity at 50 μM” value [2] was “αTP stimulated PI3Kγ stronger than αT (Figure 4B)” and the “isoelectric point mobility shift competition with phosphatidylinositol” value [4] was “the competition with αTP was slightly weaker (Figure 3B)”.
`Cc1c(O)cc2c(c1C)O[C@](C)(CCC[C@H](C)CCC[C@H](C)CCCC(C)C)CC2` [RRR-γ-tocopherol] was tested, and the “% of control activity at 50 μM” value [2] was “All four tocopherols stimulated PI3Kγ activity with similar efficiency (Figure 4A)”.
With `Cc1cc(O)cc2c1O[C@](C)(CCC[C@H](C)CCC[C@H](C)CCCC(C)C)CC2` [RRR-δ-tocopherol] the “% of control activity at 50 μM” value [2] was “All four tocopherols stimulated PI3Kγ activity with similar efficiency (Figure 4A)”.
`Cc1cc(O)c(C)c2c1O[C@](C)(CCC[C@H](C)CCC[C@H](C)CCCC(C)C)CC2` [RRR-β-tocopherol] was tested, and the “% of control activity at 50 μM” value [2] was “All four tocopherols stimulated PI3Kγ activity with similar efficiency (Figure 4A)”.
